Entries after “also recorded” stand apart in the source; their conditions may differ. Read-outs that look alike come from different tables or passages of the source.
Tests used:
[1] = system: human microvascular endothelial cell (HMVEC) migration; assay: Cell migration assay (wounding) on HMVEC; type: cell-based; details: for effect of siRNA on growth factor induced endothelial cell migration: 96 hours after transfection, FIG. 7; for HMVEC migration after siRNA transfection: in the absence of added growth factors, vs vehicle control, FIG. 6B
[2] = system: thioredoxin activity in human microvascular endothelial cells; assay: Thioredoxin bioassay (colorimetric, DTNB) on HMVEC protein extracts; type: cell-based; details: for thioredoxin activity after siRNA transfection: in the absence of the stimuli, vs vehicle control, FIG. 6A
Description: Thioredoxin Bioassay. Thioredoxin was assayed based upon previously published colorimetric protocols. Wang et al. (2002) J. Biol Chem. 277:26496-26500. The level of thioredoxin activity is assessed at […] via the […] of a colorimetric substrate DTNB (5,5′-dithiobis(2-nitrobenzoic acid)). Protein extracts were obtained by subjecting cells to a lysis buffer (20 mM HEPES (pH 7.9), 300 mM NaCl, 100 mM KCl, 10 mM EDTA, 0.1% Nonidet P-40, PMSF protease inhibitors).
Double-stranded siRNA were transfected into cells (Lipofectamine2000 reagent, Invitrogen). 24 hours after transfection, HMVEC migration experiments were performed, in the presence of vehicle or stimuli. Cell migration and thioredoxin activity were assayed as described above.

[3] = system: human microvascular endothelial cell (HMVECs)
Description: To further investigate the effects of nAChR-dependent pathways on EC migration, the effect of the nAChR antagonist, hexamethonium, on EC migration induced by nicotine, VEGF and bFGF was studied.

[4] = system: HMVECs; assay: cDNA microarray analysis of HMVECs; type: cell-based, human
Description: Microarray Analyses. HMVECs were grown to 50-70% confluency. Subconfluent rather than confluent HMVEC cultures were studied because they more closely resemble conditions associated with cell migration in vivo, and because this condition is associated with increased EC expression of α7-nAChRs. Heeschen et al. (2002) J. Clin. Invest. 110:527-536. The concentration of the FBS in the media was then reduced to 1% so as to render the endothelial cells quiescent. After 24 hours, nicotine (10^−8M), VEGF (10 ng/ml) or bFGF (10 ng/ml) was added. Total RNA was then harvested at 24 hours. Five separate experiments per condition were processed for cDNA microarray analysis. Fluorescently labeled cDNAs (stimulated HMVECs versus vehicle-treated HMVECs at 24 hours post incubation) were hybridized on cDNA microarrays containing 39711 nonredundant cDNA clones, representing 26,260 unique UniGene clusters (SFGF, Stanford, Calif.). Eisen et al. (1998) Proc Natl Acad Sci USA 95:14863-14868. Scanning of processed microarray slides was performed using a GenePix400A scanner and images analysed with GENEPIX PRO software (Axon Instruments, Foster City, Calif.). Microarray data were stored in the Stanford Microarray Database (Stanford, Calif.). Spots with signal less than 2.5-fold above background were removed in both channels and/or a regression correlation of less than 0.6. Genes with less than 80% evaluable data were excluded and the remaining data was then normalized. The significance of microarrays (SAM) algorithm was used with a one-class design to identify genes differentially expressed by treatment with each stimuli at each timepoint. Tusher et al. (2001) Proc Natl Acad Sci USA. 98:5116-5121. Delta values giving approximately 5% false discovery were chosen. To analyze convergent gene expression profiles, all differentially expressed genes at 24 hours were hierarchically clustered by gene and by array (Cluster software, version 2.11), and the results analysed with Treeview software (version 1.6). Eisen et al. (1998) supra.

[5] = vs vehicle, nicotine 10^−8M to 10^−4M, VEGF or bFGF 1-10 ng/ml, FIG. 1, 2A, 5B
[6] = HMVEC, 24 h, effect stronger for bFGF than for nicotine or VEGF, FIG. 3B Panel D
[7] = HMVEC, vs vehicle, nicotine 10^−8M, VEGF 10 ng/ml, bFGF 10 ng/ml, hexamethonium 10^−4M, FIG. 4, 5A

In the case of `C[N+](C)(C)CCCCCC[N+](C)(C)C` [hexamethonium, hexamethonium bromide], the “effect on growth factor (VEGF or bFGF)-induced EC migration” value [1] was “significantly attenuated”, the “effect on nicotine-induced EC migration” value [1] was “abrogated; also recorded: abolished” and the “effect on nicotine-, VEGF- or bFGF-induced thioredoxin activity” value [2] was “inhibited”. The “thioredoxin activity, agent alone” value [2] was “no significant effect” and the “cell death (cellular toxicity)” value ([3]; antagonist alone, MTT assay) was “did not induce cell death”.

`CNC1(C)C2CCC(C2)C1(C)C` (stereo not shown) [mecamylamine] was tested, and the “cell death (cellular toxicity)” value [3] was “did not induce cell death”.

For `CN1CCC[C@H]1c1cccnc1` [nicotine, S-3-(1-methyl-2-pyrrolidinyl)pyridine, reference compound], the “concentration of maximal stimulation of EC migration” value ([1]; HMVEC, dose range 10^−8M to 10^−4M, FIG. 2A) was 10^−8 M, the “EC (HMVEC) migration, stimulus alone” value [1, 5] was “greater migratory activity; also recorded: induced human microvascular endothelial cell (HMVEC) migration in a dose-dependent fashion” and the “EC (HMVEC) migration, stimulus alone” value ([1]; vs vehicle, nicotine 10^−8M to 10^−4M, VEGF or bFGF 1-10 ng/ml, FIG. 1, 2A, 5B, listed as Nicotine) was “stimulated EC migration in a dose-dependent manner”. For the same molecule, the “expression of the VEGF receptor FLT1” value [4, 6] was “induced activation”, the “thioredoxin activity, agent alone” value [2, 7] was “induced HMVEC thioredoxin activity significantly above vehicle; also recorded: increased” and the “thioredoxin activity, agent alone” value ([2]; HMVEC, vs vehicle, nicotine 10^−8M, VEGF 10 ng/ml, bFGF 10 ng/ml, hexamethonium 10^−4M, FIG. 4, 5A, listed as Nicotine) was “increased”.

VEGF was tested, and the “EC (HMVEC) migration, stimulus alone” value [1] was “induced EC migration”, the “concentration of maximal effects on EC migration” value [1] was 10 ng/mL and the “Fold Change CHRM5 (Cholinergic muscarinic receptor 5)” value [4] was 2.0. The “Fold Change CHRNA3 (Nicotinic receptor alpha polypeptide 3)” value [4] was 1.7, the “Fold Change CHRNA10 (Nicotinic receptor alpha polypeptide 10)” value [4] was 2.0 and the “Fold Change CHRNB2 (Nicotinic receptor beta polypeptide 2)” value [4] was 6.9. For the same molecule, the “Fold Change CHRNB3 (Nicotinic receptor beta polypeptide 3)” value [4] was 2.2, the “expression of the VEGF receptor FLT1” value [4] was “induced activation” and the “thioredoxin activity, agent alone” value [2] was “induced HMVEC thioredoxin activity significantly above vehicle; also recorded: increased”.

For “bFGF: human bFGF purchased from R&D Systems; angiogenic growth factor”, the “concentration of maximal effects on EC migration” value ([1]; HMVEC, range 1-10 ng/ml) was 10 ng/mL, the “EC (HMVEC) migration, stimulus alone” value [1, 5] was “induced EC migration” and the “expression of the VEGF receptor FLT1” value [4, 6] was “induced activation”. The “thioredoxin activity, agent alone” value [2, 7] was “less robust (P=0.02 vs. vehicle) but significant increase; also recorded: increased”.

In the case of “scrambled siRNA: Scrambled (randomly arranged) RNAi GUUGGCCAUUCUACUUCGCTTdtt (SEQ ID NO:17) used as negative control (GUUGGCCAUUCUACUUCGCTTDTT; dTdT overhang, further chemistry not given here)”, the “effect of siRNA on growth factor induced endothelial cell migration” value (shortened to “effect of siRNA”) ([1]; HMVEC) was “no effect”, the “HMVEC migration after siRNA transfection” value [1] was “no effect” and the “thioredoxin activity after siRNA transfection” value ([2]; HMVEC) was “no effect”.

With “siRNA against TXNIP: Double-stranded siRNA to TXNIP: sense ACAGACUUCGGAGUACCUGtt (SEQ ID NO: 14), antisense CAGGUACUCCGAAGUCUGUtt (SEQ ID NO: 15) (sense ACAGACUUCGGAGUACCUGTT; antisense CAGGUACUCCGAAGUCUGUTT; lower-case overhang letters stated to be dideoxynucleotides, upper case undefined, further chemistry not given here)” the “HMVEC migration after siRNA transfection” value [1] was “strongly stimulated; also recorded: significantly increased” and the “thioredoxin activity after siRNA transfection” value ([2]; HMVEC) was “significantly stimulated; also recorded: significantly increased”.

“siRNA directed against ARHGEF: Double-stranded siRNA to ARHGEF7: sense GCCUGUGUCUCCCAAAUCAtt (SEQ ID NO: 5), antisense UGAUUUGGGAGACACAGGCtt (SEQ ID NO: 6) (sense GCCUGUGUCUCCCAAAUCATT; antisense UGAUUUGGGAGACACAGGCTT; lower-case overhang letters stated to be dideoxynucleotides, upper case undefined, further chemistry not given here)” was tested, and the “effect of siRNA” value ([1]; HMVEC) was “inhibited”.

“siRNA directed against P4HA: Double-stranded siRNA to P4HA1: sense GGAUUUGUUGGGCAUCCAGtt (SEQ ID NO: 11), antisense CUGGAUGCCCAACAAAUCCtt (SEQ ID NO: 12) (sense GGAUUUGUUGGGCAUCCAGTT; antisense CUGGAUGCCCAACAAAUCCTT; lower-case overhang letters stated to be dideoxynucleotides, upper case undefined, further chemistry not given here)” was tested, and the “effect of siRNA” value ([1]; HMVEC) was “inhibited”.

For “siRNA directed against Rin2: Double-stranded siRNA to Rin2: sense CUGAAACAGGAGAUGGUGCtt (SEQ ID NO: 8), antisense GCACCAUCUCCUGUUUCAGtt (SEQ ID NO: 9) (sense CUGAAACAGGAGAUGGUGCTT; antisense GCACCAUCUCCUGUUUCAGTT; lower-case overhang letters stated to be dideoxynucleotides, upper case undefined, further chemistry not given here)”, the “effect of siRNA” value ([1]; HMVEC) was “inhibited”.

α-bungarotoxin was tested, and the “effect on nicotine-induced EC migration” value [1] was “abolished”.

From US8236772B2, “Methods of modulating angiogenesis and screening compounds for activity in modulating angiogenesis” (The Board of Trustees of the Leland Stanford Junior …, priority 2005, dated 2012)
